Laboratory results: patent US12144789B2, “Pharmaceutical composition exhibiting anti-tumor activity, method for treating patient suffering from cancer and method for inhibiting tumor growth” (Gongwin Biopharm Co., Ltd., priority 2016, dated 2024)
Read-outs that look alike come from different tables or passages of the source.

How the values were obtained:
[1] = tested on: Tca-8113 cells; test: MTT cell viability assay; type: cell-based; details: for suppression ratio (cancer cell suppression %/normal cell suppression %): Tca-8113 vs HGF
Protocol: (§1) To examine the effects of PTS on cell viability, Tca-8113 and HGF cells were treated with different doses of PTS for 1 h. The 3-(4,5-dimethylthiazol-2-yl)-2,5-diphenyltetrazolium bromide (MTT) assay is conducted by treating Tca-8113 and human gingival fibroblast (HGF) cells with 2.5 μmol/l, 5 μmol/l, 10 μmol/l, 20 μmol/l, 40 μmol/l and 80 μmol/l PTS for 1 h, respectively. The effects of PTS on cell viability were assessed using MTT 72 h after treatment. […] PTS induces more significant cell death in […] cells than that in normal gingival fibroblasts. Taking the 10 μmol/l […] treatment for example, about 50% Tca-8113 cells were suppressed while only 10% […] cells were suppressed, so the suppression ratio (cancer cell suppression %/normal cell suppression %) is 5. Similarly, the suppression ratios of 20 μmol/l, 40 μmol/l and 80 μmol/l are 2.6, 1.8, 1.05.

[2] = tested on: Tca-8113 cells; test: Transmission electron microscopy of ultrastructural changes; type: cell-based; details: 40 μmol/l PTS, 1 h
Protocol: To investigate the mechanisms of PTS-induced cell death, the present invention uses transmission electron microscopy analysis to observe the changes in ultrastructures of Tca-8113 cells. Tca-8113 cells were treated with 40 μmol/l PTS or dimethyl sulfoxide for 1 h. The ultrastructural changes were observed using a transmission electron microscope. […] More secondary lysosomes (pointed by arrow) with high electron density were observed after PTS treatment. Lysosomal instability was proposed to control the fate of cells either through activation of apoptosis or necrosis.

[3] = tested on: Human gingival fibroblast (HGF) cells; type: cell-based; details: 10 min
Protocol: (§2) In assessing the accumulation of intracellular PTS between Tca-8113 cells and normal cells after different doses and incubation periods of PTS treatment, Tca-8113 and Human gingival fibroblast (HGF) cells were treated 2.5 μmol/l˜80 μmol/l PTS for different periods. Please see FIG. 2A and FIG. 2B, which show the plots of intracellular PTS concentration after 2.5 μmol/l˜80 μmol/l PTS treatment for different periods of time in Tca-8113 and HGF cell, respectively. […] However, the accumulated intracellular PTS concentration in […] cells is much higher than that in HGF cells. […] The intracellular PTS concentration variation between the Tca-8113 cells and HGF cells can range from 5× (20 μmol/l), 8× (40 μmol/l) to 12 (80 μmol/l).

[4] = tested on: Tca-8113 cells; test: Colony formation assay; type: cell-based; details: 80 μmol/l PTS
Excerpt: Colony formation assay shown in FIG. 6 further confirms the cytotoxic effects of PTS on Tca-8113 cells.

[5] = tested on: Tca-8113 cells; test: Transwell migration assay; type: cell-based; details: 40 μmol/l PTS, 1 h
Protocol: The effect of PTS on the invasive ability of cancer cells is also investigated. Tca-8113 cells were treated with 40 μmol/l PTS or DMSO for 1 h; the effects of PTS on cell migration were determined using a transwell migration assay.

[6] = cited from earlier work
[7] = tested on: Tca-8113 cells; test: Morphologic changes by phase-contrast microscope; type: cell-based; details: 40 μmol/l PTS for 1 h
Protocol: Next, in observing the morphological feature of the treated cells, Tca-8113 and HGF cells were treated with 40 μmol/l PTS or DMSO (control vehicle) for 1 h; the morphologic changes were observed using a phase-contrast microscope.

[8] = tested on: Tca-8113 cells; type: cell-based; details: human; for intracellular PTS concentration variation between Tca-8113 cells and HGF cells: 10 min
Protocol: Firstly, Tca-8113 were treated with PTS or dimethyl sulfoxide (DMSO) (control vehicle) and then extract the intracellular matrix subjected to high-performance liquid chromatography.
as §2

[9] = tested on: Lysosomes of Tca-8113 cells; test: Lysosomal integrity assay (LMP), lysosomal β-galactosidase free activity; type: biochemical; details: isolated lysosomes of Tca-8113 cells
Protocol: Next, a lysosomal integrity assay (LMP) is performed to assess the effects of PTS on lysosomal membrane integrity. Lysosomes of Tca-8113 cells were isolated using the Percoll gradient centrifugation method. The effects of PTS on lysosomal integrity were assessed by measuring the activity of lysosomal β-galactosidase using UMBG (4-methylumbelliferyl-β-D-galactoside). The 4-methylumbelliferone released was determined by measuring its fluorescence (excitation: 365 nm, emission: 444 nm) on a fluorescence spectrophotometer. The activity of the enzyme measured in the presence and absence of 0.36% Triton X-100 was designated the […], respectively.

[10] = tested on: Tca-8113 cells; test: Lactate dehydrogenase (LDH) release assay (necrosis); type: cell-based; details: 80 μmol/l PTS, 1 h
Protocol: Furthermore, in studying PTS-induced necrosis, LDH release assay is used. LDH is a cytosolic enzyme that can be released into culture medium upon damage of the plasma membrane. Necrosis, which results in an early loss of plasma membrane integrity, can be determined using the LDH release assay. In LDH release assay, Tca-8113 cells were treated with 80 μmol/l PTS or DMSO for 1 h; PTS-induced necrosis was determined using the lactate dehydrogenase (LDH) release assay.

[11] = tested on: Human gingival fibroblast (HGF) cells; type: cell-based
Protocol: as §1

[12] = tested on: cathepsin B; test: Western blot analysis of cleaved cathepsin B; type: cell-based; details: Tca-8113 cells, 40 μmol/l PTS, 1 h
Protocol: In the western blot analysis, Tca-8113 cells are analyzed after 40 μmol/l PTS treatment for 1 h.

[13] = tested on: cytochrome c; test: Western blot analysis of cytosolic cytochrome c; type: cell-based; details: Tca-8113 cells, 40 μmol/l and 80 μmol/l PTS, 1 h
Protocol: (§3) Increased lysosomal permeability is reported to induce mitochondrial damage and the release of pro-apoptotic factors. The applicant therefore investigated the cytosolic cytochrome c released from the mitochondria after PTS treatment. […] Inhibition of ATP biosynthesis is observed when Tca-8113 cells were treated with 40 μmol/l PTS or DMSO for […]. The effects of PTS on ATP biosynthesis were assessed by measuring chemiluminescence. […] 40 μmol/l PTS treatment for 1 h attenuated ATP biosynthesis to 65.8%.

[14] = tested on: mitochondrial ATP biosynthesis in Tca-8113 cells; test: ATP biosynthesis by chemiluminescence; type: cell-based; details: 40 μmol/l PTS
Protocol: as §3

[15] = tested on: Tca-8113 cells; test: cells; type: cell-based; details: 1 h
Protocol: Next, cancer cell death is measured by using flow cytometric analysis. Tca-8113 cells were treated with 40 μmol/l and 80 μmol/l PTS or DMSO (control) for 1 h. Cells were stained with Annexin V− FITC and propidium iodide (PI), followed by flow cytometric analysis.

[16] = 10 μmol/l for 1 h, MTT 72 h after treatment
[17] = read-out: Viable cells (Annexin V−/PI−)

Q: For Cc1ccc(S(N)(=O)=O)cc1 [PTS, para-toluenesulfonamide], which Tca-8113 cells suppressed [1, 16] is on record?
A: about 50%

Q: What about the “suppression ratio (cancer cell suppression %/normal cell suppression %)” value ([1]; 10 μmol/l) of the same compound?
A: 5

Q: And the “suppression ratio (cancer cell suppression %/normal cell suppression %)” value ([1]; 20 μmol/l)?
A: 2.6

Q: What about the “suppression ratio (cancer cell suppression %/normal cell suppression %)” value ([1]; 40 μmol/l) of the same compound?
A: 1.8

Q: What about the “number of viable cells” value ([1]; 80 μmol/l PTS for 1 h, MTT 72 h after treatment) of the same compound?
A: almost completely suppressed the number of viable cells

Q: And the “suppression ratio (cancer cell suppression %/normal cell suppression %)” value ([1]; 80 μmol/l)?
A: 1.05

Q: What about the “viability of Tca-8113 cells” value ([1]; 2.5-80 μmol/l PTS for 1 h, MTT 72 h after treatment) of the same compound?
A: significantly reduced the viability of Tca-8113 cells in a dose-dependent manner

Q: And the ultrastructural changes [2]?
A: shrunk nuclei and an irregular nuclear membrane

Q: And the “intracellular PTS accumulation” value [3]?
A: significantly inhibited in HGF cells compared with that in Tca-8113 cells

Q: What about the “number of viable cells (colony formation)” value [4] of the same compound?
A: almost completely suppressed the number of viable cells

Q: And the “invasive ability (cell migration)” value [5]?
A: significantly reduced the invasive ability of Tca-8113 cells

Q: What about the “solubility in water or a water-based solution” value [6] of the same compound?
A: not readily dissolved in water or in a water-based solution

Q: What about the morphologic changes [7] of the same compound?
A: induce classical apoptotic features including cell shrinkage, nuclear condensation, cell density reduction, and apoptotic body formation

Q: What about the “intracellular PTS concentration” value [8] of the same compound?
A: increase the intracellular PTS concentration in Tca-8113 cells in a dose dependent manner

Q: What about the “intracellular PTS concentration variation between Tca-8113 cells and HGF cells” value ([8]; 20 μmol/l) of the same compound?
A: 5 ×

Q: What about the “intracellular PTS concentration variation between Tca-8113 cells and HGF cells” value ([8]; 40 μmol/l) of the same compound?
A: 8 ×

Q: And the “intracellular PTS concentration variation between Tca-8113 cells and HGF cells” value ([8]; 80 μmol/l)?
A: 12

Q: What about the “free enzyme activity (lysosomal β-galactosidase)” value [9] of the same compound?
A: significantly increase free enzyme activity in a dose-dependent manner

Q: And the “LDH release compared with the control group” value [10]?
A: two-fold increase

Q: What about the HGF cells suppressed [11, 16] of the same compound?
A: 10%

Q: And the “inhibitory effects of PTS in HGF cells” value ([11]; human, 1 h)?
A: significantly decreased compared with that in Tca-8113 cells

Q: What about the “cleaved cathepsin B expression” value [12] of the same compound?
A: significantly increases cleaved cathepsin B expression

Q: What about the “cytosolic cytochrome c expression” value [13] of the same compound?
A: significantly induced cytosolic cytochrome c expression

Q: What about the “mitochondrial ATP biosynthesis” value ([14]; 24-48 h) of the same compound?
A: significantly inhibited mitochondrial ATP biosynthesis in a time-dependent manner

Q: And the “ATP biosynthesis attenuated to” value ([14]; 1 h)?
A: 65.8%

Q: And the “Late apoptotic/necrotic rate (Annexin V+/PI+)” value ([15]; 40 μmol/l PTS)?
A: 11.5%

Q: What about the “early apoptotic rate (Annexin V+/PI−)” value ([15]; 40 μmol/l PTS) of the same compound?
A: 20.2%

Q: What about the “Late apoptotic/necrotic rate (Annexin V+/PI+)” value ([15]; 80 μmol/l PTS) of the same compound?
A: 15.9%

Q: What about the “early apoptotic rate (Annexin V+/PI−)” value ([15]; 80 μmol/l PTS) of the same compound?
A: 64.1%

Q: What about the viability at 40 µM [15, 17] of the same compound?
A: 67.5%

Q: What about the viability at 80 µM [15, 17] of the same compound?
A: 19.8%
